Experimental data as given in patent US10947203B2, “1,4,5-substituted 1,2,3-triazole analogues as antagonists of the pregnane X receptor” (ST. JUDE CHILDREN'S RESEARCH HOSPITAL, priority 2016, dated 2021).

How the values were obtained:
[1] = tested on: primary human hepatocytes (PHHs); test: midazolam metabolism in primary human hepatocytes pretreated with hPXR agonist; type: cell-based; settings: 10 μM test compound; 72 hr pretreatment with DMSO, 1.6 μM RIF, 0.5 or 5 μM PTX; then 3.3 μM MDZ 4 h; FIG. 1A
Description: (§1) The concentrations of 1′-OH MDZ (MDZ metabolite) in the media of each pretreatment condition were determined using LC/MS/MS as described in the Examples. […] PHHs were also treated with 1 μM of PTX in the absence and presence of 10 μM of the test compound, and then the concentrations of major PTX metabolites, 3-OH PTX (by CYP3A4) and 6α-OH PTX (by CYP2C8), were determined using LC/MS/MS at 24 hr and 48 hr of treatment, respectively.
(§2) Midazolam and 1-OH midazolam were from BD Gentest. Midazolam-D4 maleate (internal standard, IS) was from Cerilliant; Paclitaxel and 3′-p-hydroxypaclitaxel were from Sigma; and 6u-hydroxy Paclitaxel was from Cayman Chemical. 100 μl of reaction medium at each different time point was collected and 200 μl of acetonitrile containing IS was added. This solution was then vigorously mixed for 10 min and centrifuged at 10,000 rpm for 10 min. Calibration and quality control samples were prepared. 5 μl of the samples was injected onto a Waters Acquity UPLC BEH C18 column (2.1x 50 mm, 1.7 μm), using a Waters Acquity UPLC system. Chromatographic separation was performed by gradient elution at a constant flow rate of 1 mL/min for 15 min. The gradient consisted of 0.1% formic acid water (mobile phase A) and methanol (mobile phase B). […] Nitrogen was applied as curtain, collision and drying gas at 60 psi. […]

[2] = tested on: primary human hepatocytes (PHHs); test: paclitaxel metabolism in primary human hepatocytes; type: cell-based; settings: 1 μM PTX with 10 μM test compound; 24 and 48 hr; FIGS. 1B, 1C
Description: as §1, §2

[3] = tested on: hPXR-mediated increase in CYP3A expression; test: liver Cyp3a11 mRNA and CYP3A protein in hPXR-tg mice; type: in vivo, mouse; settings: RIF 10 mg/kg plus test compound 200 mg/kg, 72 h, FIGS. 3A-3C
Description: Briefly, mouse liver Cyp3a11 mRNA was analyzed by real-time PCR in hPXR-tg mice treated with vehicle control (Vehicle), RIF (10 mg/kg) or RIF (10 mg/kg) plus test compound (200 mg/kg) for 72 h. Each data point represents the level of Cyp3a11 mRNA (FIG. 3A) or protein (FIG. 3B) in an individual mouse; lines indicate the mean value for 3-7 mice per group.
hPXR-tg mice were generated previously (Xie et al., 2000). Five mice in each group were dosed orally with vehicle control or 10 mg/kg RIF, every 24 h for three days. Eight hours after the last dose, the animals were euthanized by C02 and liver tissues were harvested. A piece of each liver was preserved in RNAlater solution (Invitrogen) at 4° C. for mRNA isolation. The remaining tissue was instantly frozen in liquid nitrogen and stored at −80° C. for total protein extraction. […]

[4] = tested on: hPXR-mediated CYP3A4 promoter reporter activity; test: CYP3A4 promoter reporter activity in hPXR-CYP3A4-luc reporter mice (bioluminescence imaging); type: in vivo, mouse; settings: RIF 10 mg/kg plus test compound 150 mg/kg every 24 h for 2 days; imaging 10 h after last treatment; FIG. 4
Description: Individual mouse received 3 rounds of sequential treatment of vehicle control (Vehicle), RIF (10 mg/kg) and RIF (10 mg/kg) plus the test compound (150 mg/kg) every 24 h for 2 days, respectively, with a washout period of 72-hour between two rounds of treatment. The luciferase activity in these reporter mice was recorded by bioluminescence imaging 10 h after the last treatment of each round, and the induction of CYP3A4 promoter reporter activity was calculated as described in Examples. Each data point represents the induction of CYP3A4 promoter reporter activity by the treatment in an individual mouse, and dos lines indicate the CYP3A4 promoter reporter activity change in individual mouse after following round of treatment. p values are indicated between the two treatment compared by paired t test.
10 hours after the last treatment of each round, the mice were imaged as described above. Uniform regions of interest were drawn around the liver, and total photon flux was analyzed with Living Image 3.2 software (Xenogen). The induction of CYP3A4-luc reporter activity was calculated using the imaging from the same mouse as follows: induction rate=total photon flux (after treatment)/total photon flux (before treatment).

[5] = tested on: RIF-induced metabolism of the anesthetic (CYP3A11); test: loss of righting reflex (LORR) assay in hPXR-tg mice; type: in vivo, mouse; settings: RIF 10 mg/kg plus test compound 200 mg/kg every 24 h for three days, FIG. 5
Description: Loss of righting reflex (LORR) duration was recorded as described in Examples to measure metabolism of the anesthetic ([…]) in hPXR-tg, mice before and after treatment with vehicle, RIF, and RIF plus the test compound as indicated. Each data point represents LORR duration in an individual mouse; lines indicate LORR duration change in individual mouse before and after treatment. P values indicate comparison of values by paired t test.
Mice were intraperitoneally injected with 250 mg/kg of 2,2,2-tribromoethanol, which is metabolically cleared only via mouse CYP3A11. After the mice lost their righting reflex, they were placed on their backs under a heat lamp. The duration of LORR was measured as the time from the start of LORR to recovery (i.e., when mice could right themselves after being placed on their backs twice within 1 min). A baseline LORR duration was established for each mouse at the administered dose of 2,2,2-tribromoethanol. […] The paired Student's t-test was used to compare LORR duration between baseline and after treatment. A P value <0.05 was considered to indicate a significant difference between compared groups.

COc1ccc(OC)c(-n2nnc(S(=O)(=O)c3ccc(C(C)(C)C)cc3)c2C)c1 [4-((4-(tert-butyl)phenyl)sulfonyl)-1-(2,5-dimethoxyphenyl)-5-methyl-1H-1,2,3-triazole]
metabolism of MDZ (1′-OH MDZ concentration in media) [1]: essentially blocked
metabolism of PTX to 3-OH PTX and 6α-OH PTX [2]: effectively blocked
hPXR-mediated increase in CYP3A expression (liver Cyp3a11 mRNA, CYP3A protein) [3]: inhibits the hPXR-mediated increase in CYP3A expression
RIF-induced expression of the reporter under the control of the CYP3A4 promoter [4]: significantly reduced
RIF-induced metabolism of the anesthetic, as determined by LORR duration [5]: significantly inhibited
